{"source": "patent US11203575B2", "about": "“Methhod for producing a crystalline form of 5-amino-2,3-dihydrophthalazine-1,4-dione” (METRIOPHARM AG, priority 2016, dated 2021)", "excerpt": "FIG. 5: TG-DSC diagram of crystalline form of 5-amino-2,3-dihydro-1,4-phthalazinedione produced by the method according to the invention. Upper trace: Mass loss determined by TG. Lower trace: Heat flow determined by DSC", "data": [{"smiles": "Nc1cccc2c(=O)[nH][nH]c(=O)c12", "note": "[crystalline form of luminol, 5-amino-2,3-dihydrophthalazine-1,4-dione]", "values": [{"measurement": "solid state transformation to other forms", "setting": "TG-DSC, until thermal degradation of the crystalline compound sets in (FIG. 5)", "result": "no solid state transformation to other forms is observed"}, {"measurement": "thermal stability up to", "setting": "simultaneous TG and DSC, solid crystalline form (FIG. 5)", "result": "up to 328±1 °C"}]}]}
